Experimental data from ChEMBL document CHEMBL3112525, “Synthesis and biological evaluation of 4-(1,2,3-triazol-1-yl)coumarin derivatives as potential antitumor agents” (Bioorg Med Chem Lett, 2014).
Values belong to the molecule of their own block, whether it stands above or below them.

Tests used:
A549 [1] = assay: Antiproliferative activity against human A549 cells after 48 hrs by MTT assay; type: functional, cell-based; details: A549, 48 h
SW480 = assay: Antiproliferative activity against human SW480 cells after 48 hrs by MTT assay; type: functional, cell-based; details: SW480, 48 h
MCF7 [2] = assay: Antiproliferative activity against human MCF7 cells after 48 hrs by MTT assay; type: functional, cell-based; details: MCF7, 48 h
A549 [3] = assay: Induction of apoptosis in human A549 cells assessed as late apoptotic cells at after 48 hrs by annexin V-FITC and propidium iodide staining-based flow cytometry (reference value: 2.87 %); type: functional
MCF7 [4] = assay: Cell cycle arrest in human MCF7 cells assessed as accumulation at G2/M phase at 5 uM after 48 hrs by flow cytometry (Rvb =15.78 %); type: functional
A549 [5] = assay: Induction of apoptosis in human A549 cells assessed as viable cells at after 48 hrs by annexin V-FITC and propidium iodide staining-based flow cytometry (reference value: 95.5 %); type: functional
A549 [6] = assay: Induction of apoptosis in human A549 cells assessed as early apoptotic cells at after 48 hrs by annexin V-FITC and propidium iodide staining-based flow cytometry (reference value: 0.720 %); type: functional
A549 [7] = assay: Induction of apoptosis in human A549 cells assessed as late necrotic cells at after 48 hrs by annexin V-FITC and propidium iodide staining-based flow cytometry (reference value: 0.920 %); type: functional
MCF7 [8] = assay: Cell cycle arrest in human MCF7 cells assessed as accumulation at G1 phase at 5 uM after 48 hrs by flow cytometry (Rvb =52.82 %); type: functional
MCF7 [9] = assay: Cell cycle arrest in human MCF7 cells assessed as accumulation at S phase at 5 uM after 48 hrs by flow cytometry (Rvb =31.40 %); type: functional

SMILES: O=c1cc(-n2cc(-c3ccccc3)nn2)c2cc(Br)ccc2o1
- IC50 (A549 [1]): 11.2 µM
- IC50 (SW480): 6.66 µM
- IC50 (MCF7 [2]): 9.45 µM

SMILES: O=c1cc(-n2cc(COc3cccnc3)nn2)c2cc(Br)ccc2o1
- IC50 (A549 [1]): 24.8 µM
- IC50 (SW480): 39.8 µM
- IC50 (MCF7 [2]): 39.8 µM

SMILES: O=c1cc(-n2cc(COc3ccccc3Br)nn2)c2cc(Br)ccc2o1
- IC50 (A549 [1]): 8.43 µM
- IC50 (SW480): 20.1 µM
- IC50 (MCF7 [2]): 28.9 µM

SMILES: O=c1cc(-n2cc(COc3ccccc3O)nn2)c2cc(Br)ccc2o1
- IC50 (A549 [1]): 7.94 µM
- IC50 (SW480): 19.1 µM
- IC50 (MCF7 [2]): 24.8 µM

SMILES: CCc1ccc(OCc2cn(-c3cc(=O)oc4ccc(Br)cc34)nn2)cc1
- IC50 (A549 [1]): 11.6 µM
- IC50 (SW480): 10.8 µM
- IC50 (MCF7 [2]): 12.7 µM

SMILES: Nc1ccc(OCc2cn(-c3cc(=O)oc4ccc(Br)cc34)nn2)cc1
- IC50 (A549 [1]): 11.8 µM
- IC50 (SW480): 2.09 µM
- IC50 (MCF7 [2]): 2.04 µM

SMILES: O=c1cc(-n2cc(COc3ccc(F)cc3)nn2)c2cc(Br)ccc2o1
- IC50 (A549 [1]): 0.85 µM
- IC50 (SW480): 1.77 µM
- IC50 (MCF7 [2]): 7 µM

SMILES: COC(=O)c1ccc(OCc2cn(-c3cc(=O)oc4ccc(Br)cc34)nn2)cc1
- IC50 (A549 [1]): 0.66 µM
- IC50 (SW480): 3.62 µM
- IC50 (MCF7 [2]): 3.13 µM

SMILES: O=c1cc(-n2cc(COc3ccccc3)nn2)c2cc(O)ccc2o1
- IC50 (A549 [1]): > 50 µM
- IC50 (SW480): > 50 µM
- IC50 (MCF7 [2]): > 50 µM

SMILES: O=c1cc(-n2cc(COc3ccccc3)nn2)c2cc(OCCN3CCOCC3)ccc2o1
- IC50 (A549 [1]): > 50 µM
- IC50 (SW480): > 50 µM
- IC50 (MCF7 [2]): > 50 µM

SMILES: CS(=O)(=O)Oc1ccc2c(-n3cc(COc4ccccc4)nn3)cc(=O)oc2c1
- IC50 (A549 [1]): 9.14 µM
- IC50 (SW480): 10.7 µM
- IC50 (MCF7 [2]): 45.8 µM

SMILES: O=c1cc(-n2cc(COc3ccc(F)cc3)nn2)c2ccccc2o1
- IC50 (A549 [1]): 0.68 µM
- IC50 (SW480): 3.82 µM
- IC50 (MCF7 [2]): 5.84 µM

SMILES: COc1ccc2oc(=O)cc(-n3cc(COc4ccc(F)cc4)nn3)c2c1
- IC50 (A549 [1]): 3.15 µM
- IC50 (SW480): 25.9 µM
- IC50 (MCF7 [2]): 8.56 µM

SMILES: O=c1cc(-n2cc(COc3ccc(F)cc3)nn2)c2cc(O)ccc2o1
- IC50 (A549 [1]): 2.01 µM
- IC50 (SW480): 2.72 µM
- IC50 (MCF7 [2]): 4.62 µM

SMILES: COc1ccc2c(-n3cc(COc4ccc(F)cc4)nn3)cc(=O)oc2c1
- IC50 (A549 [1]): 0.52 µM
- IC50 (SW480): 1.99 µM
- IC50 (MCF7 [2]): 5.89 µM
- Activity (A549 [3]): 15.9%
- Activity (MCF7 [4]): 84.21%
- Activity (A549 [5]): 52.3%
- Activity (A549 [6]): 19.5%
- Activity (A549 [7]): 12.3%
- Activity (MCF7 [8]): 3.06%
- Activity (MCF7 [9]): 12.73%

SMILES: O=c1cc(N2CCN(Cc3cccc(O)c3)CC2)c2ccccc2o1
- IC50 (A549 [1]): > 50 µM
- IC50 (SW480): > 50 µM
- IC50 (MCF7 [2]): > 50 µM

SMILES: COc1cc(CN2CCN(c3cc(=O)oc4ccccc34)CC2)ccc1O
- IC50 (A549 [1]): > 50 µM
- IC50 (SW480): > 50 µM
- IC50 (MCF7 [2]): > 50 µM

SMILES: COc1ccc(CN2CCN(c3cc(=O)oc4ccccc34)CC2)cc1OC
- IC50 (A549 [1]): > 50 µM
- IC50 (SW480): > 50 µM
- IC50 (MCF7 [2]): > 50 µM

SMILES: COc1ccc(OCCN2CCN(c3cc(=O)oc4ccccc34)CC2)cc1
- IC50 (A549 [1]): 21.6 µM
- IC50 (SW480): 35 µM
- IC50 (MCF7 [2]): 24.2 µM

SMILES: O=[N+]([O-])c1cnc2ccc(Br)cc2c1-n1cc(COc2ccccc2)nn1
- IC50 (MCF7 [2]): 7.69 µM

SMILES: CCOC(=O)c1ccc(OCc2cn(-c3c([N+](=O)[O-])cnc4ccc(Br)cc34)nn2)cc1
- IC50 (MCF7 [2]): 13.9 µM

SMILES: COc1cccc2c1C(=O)c1c(O)c3c(c(O)c1C2=O)C[C@@](O)(C(=O)CO)C[C@@H]3O[C@H]1C[C@H](N)[C@H](O)[C@H](C)O1 [DOXORUBICIN]
- IC50 (A549 [1]): 1.65 µM
- IC50 (SW480): 2.43 µM
- IC50 (MCF7 [2]): 3.51 µM

Further lines, results first:

- IC50 (A549 [1]): 13.2 µM
- IC50 (SW480): 18.4 µM
- IC50 (MCF7 [2]): > 50 µM
SMILES: O=c1cc(-n2cc(CNc3ccccc3)nn2)c2cc(Br)ccc2o1

- IC50 (A549 [1]): 3.51 µM
- IC50 (SW480): 15.4 µM
- IC50 (MCF7 [2]): 36.8 µM
SMILES: O=c1cc(-n2cc(CSc3ccccc3)nn2)c2cc(Br)ccc2o1

- IC50 (A549 [1]): 12.3 µM
- IC50 (SW480): 4.99 µM
- IC50 (MCF7 [2]): 1.72 µM
SMILES: O=c1cc(-n2cc(COc3ccccc3)nn2)c2cc(Br)ccc2o1

- IC50 (A549 [1]): 13.3 µM
- IC50 (SW480): 16.9 µM
- IC50 (MCF7 [2]): 41.6 µM
SMILES: O=c1cc(-n2cc(COc3ccnc4ccc(Br)cc34)nn2)c2cc(Br)ccc2o1

- IC50 (A549 [1]): 5.25 µM
- IC50 (SW480): 20.2 µM
- IC50 (MCF7 [2]): 34.1 µM
SMILES: COC(=O)c1ccccc1OCc1cn(-c2cc(=O)oc3ccc(Br)cc23)nn1

- IC50 (A549 [1]): 24.5 µM
- IC50 (SW480): 1.31 µM
- IC50 (MCF7 [2]): 1.92 µM
SMILES: O=c1cc(-n2cc(COc3ccc(Br)cc3)nn2)c2cc(Br)ccc2o1

- IC50 (A549 [1]): 1.62 µM
- IC50 (SW480): 3.09 µM
- IC50 (MCF7 [2]): 11.4 µM
SMILES: O=c1cc(-n2cc(COc3ccc(C(F)(F)F)cc3)nn2)c2cc(Br)ccc2o1

- IC50 (A549 [1]): > 50 µM
- IC50 (SW480): > 50 µM
- IC50 (MCF7 [2]): > 50 µM
SMILES: O=c1cc(-n2cc(COc3ccccc3)nn2)c2ccc(OS(=O)(=O)c3ccc(F)cc3)cc2o1

- IC50 (A549 [1]): > 50 µM
- IC50 (SW480): > 50 µM
- IC50 (MCF7 [2]): > 50 µM
SMILES: O=c1cc(N2CCN(Cc3ccc(F)cc3)CC2)c2ccccc2o1

- IC50 (A549 [1]): > 50 µM
- IC50 (SW480): > 50 µM
- IC50 (MCF7 [2]): > 50 µM
SMILES: O=c1cc(N2CCN(Cc3ccccc3)CC2)c2ccccc2o1

- IC50 (A549 [1]): > 50 µM
- IC50 (SW480): > 50 µM
- IC50 (MCF7 [2]): > 50 µM
SMILES: COc1ccc(CN2CCN(c3cc(=O)oc4ccccc34)CC2)cc1

- IC50 (A549 [1]): > 50 µM
- IC50 (SW480): > 50 µM
- IC50 (MCF7 [2]): > 50 µM
SMILES: O=c1cc(N2CCN(Cc3ccccc3O)CC2)c2ccccc2o1

- IC50 (A549 [1]): 11.9 µM
- IC50 (SW480): 24 µM
- IC50 (MCF7 [2]): > 50 µM
SMILES: O=c1cc(N2CCN(CCOc3ccc(F)cc3)CC2)c2ccccc2o1

- IC50 (MCF7 [2]): 22.7 µM
SMILES: O=[N+]([O-])c1cnc2ccc(Br)cc2c1-n1cc(CSc2ccccc2)nn1
